Data on 85 compounds can be found in a melting point compilation (Tetko et al.; mined from patent text by program, amines drawn as free bases though some values may be those of a salt).

SMILES strings stand for the structures.

On to `CC(c1ccc(F)cc1)N(O)C(N)=O` (stereo not given), for which the melting point is 127 to 129 °C.

The compound `CCC(=O)N(C)C1CCN(Cc2cc3cccnc3n(-c3ccccc3F)c2=O)CC1` yielded a melting point of 218 to 220 °C.

`OC(Cn1ccnc1)(c1ccc(Cl)cc1)C1(n2cnc(Cl)n2)CC1` (stereo not given): the melting point stood at 231 °C.

`CCN(CC)CCNC(=O)N1CCCC(S(=O)(=O)c2ccc(OCCN(C)C)cc2)C1` (stereo not given) yielded a melting point of 79 to 80 °C.

Take `O=[N+]([O-])c1cc([N+](=O)[O-])c2[nH]c(C(F)(F)F)nc2c1N1CCCCC1`: the melting point lay within 207 to 209 °C.

The compound `COc1cc(C=CC=C2SC(=O)NC2=O)ccc1OCc1csc(-c2ccccc2)n1` returned a melting point of 248 to 249 °C.

The compound `COc1cc2c(c3c1OC(C)(C)C3)C(c1cccc(NC(=O)C(C)(C)CCl)c1)=NC(C)(C)C2` showed a melting point of 189 to 191 °C.

For the compound `CC(C)(C)c1ccccc1N1CCN(C(=O)Nc2ccccc2)CC1`, the melting point is 68 to 72 °C.

Take `CCCc1c(C(=O)C(C)C)c2ccc(NC(=O)NC)cc2n1Cc1ccccc1Cl`: the melting point is 106 to 108 °C.

`CC(C)(C)OC(=O)N1CCn2c(c(C(N)=O)c(C#N)c2C2CCOCC2)C1` returned a melting point of 212 to 221 °C.

Compound `CCOc1ccc(-c2csc(-c3cccc(C(=O)OC)c3)n2)cc1` gave a melting point of 192 to 193 °C.

As for `C=CCCCc1cnc(-c2ccc(F)cc2)nc1`, the melting point amounted to 21.8 °C.

Take `COc1ccc(C2(C(C)NCc3ccncc3)CCC2)cc1` (stereo not given): the melting point fell in the range of 110 to 113 °C.

Consider `O=C(Nc1ccc(CCc2ccc(O)c(O)c2)cc1)C(=O)c1sc2ccccc2c1O`, for which the melting point is 193 to 195 °C.

In the case of `FC(F)(F)Sc1ccc(C(F)(F)F)cc1`, the melting point lay in the range of 30 to 31 °C.

The compound `CN1CCN(Cc2ccc3c(c2)Cc2c(-c4ccsc4)n[nH]c2-3)CC1` gave a melting point of 115 to 117 °C.

In the case of `O=c1[nH]c2cc([N+](=O)[O-])ccc2c(=O)n1CCCN1CC=C(c2ccc(Cl)cc2)CC1`, the melting point lay within 210 to 212 °C.

On to `CON1C=C2N=NC3=C(N2C1)N(c1cccc(Cl)c1)CC(C1CC1)=C3`, for which the melting point is 155 °C.

The compound `COc1ccc(-c2nc(CNC(=O)OCc3ccccc3)sc2-c2cccnc2)cc1` showed a melting point of 93 to 94 °C.

Compound `CCC(=CC(CSc1nccn1C)=NO)C(C)[N+](=O)[O-]` (stereo not given) registered a melting point of 91 to 93 °C.

For `CC(=O)C=Cc1c(Cl)nc(C)c2c1CCCC2`, the melting point was determined as 90 °C.

With `CC(C)(C)c1cc(CCC(=O)NN)cc(C(C)(C)C)c1O`, the melting point is 153 to 154 °C.

For `CCCn1cncc1CSc1nc2ccc([N+](=O)[O-])cc2[nH]1`, the melting point was in the range of 189 to 190 °C.

In the case of `NS(=O)(=O)OCCCCCOS(N)(=O)=O`, the melting point was 96.5 to 99 °C.

With `CS(=O)(=O)CCOS(C)(=O)=O`, the melting point was in the range of 55 to 57 °C.

The compound `O=C(C[C@H]1CCCO1)N[C@H]1CC[C@H](CCN2CCN(c3nccc4c3CCO4)CC2)CC1` showed a melting point of 183 °C.

In turn, `Cc1cccc(-c2n[nH]cc2-c2ccc(F)c(-c3cn4c(n3)S(=O)CC4)c2)n1` (stereo not given) came in with a melting point of 140 to 144 °C.

Turning to `CC#CCOc1ccc(OCCC(=O)O)cc1`, the melting point fell in the range of 88 to 92 °C.

On to `CC(C)(C)CC(=O)NC[C@H]1CN(c2ccc(N3CCC(=CC#N)CC3)c(F)c2)C(=O)O1`, for which the melting point lay in the range of 210 to 212 °C.

Regarding `CC1C(=NO)CC2(O)C3Cc4ccc(O)c5c4C2(CCN3C)C1O5` (stereo not given), the melting point was 115 to 116 °C.

On to `O=C(O)c1ccc(-c2ccc(I)cc2)cc1`, for which the melting point lay within 303 to 305 °C.

Compound `COc1cc2c(c(OC(C)=O)c1)C1CCC3(C)C(=O)C(Cl)CC3C1CC2` (stereo not given) had a melting point of 164 to 166 °C.

In the case of `CCS(=O)(=O)NCCCCn1c(=O)c2c(C)nc3cccc1n32`, the melting point was in the range of 144 to 145 °C.

`COc1ccc2[nH]c(C(=O)N3CCc4cc(C(=O)NO)ccc4C3)cc2c1` yielded a melting point of 156 °C.

Take `CCOC(=O)c1cn2c3c(c(-c4cc(C)nc(C)c4)c(F)c(SCc4ccccc4)c3c1=O)OC[C@@H]2C`: the melting point lay within 175 to 178 °C.

As for `O=C1NC2=C(C=CCC2)S(=O)(=O)c2cc(C(F)(F)F)ccc21`, the melting point is 240 to 241 °C.

In the case of `CN(C(=O)C1c2ccccc2COc2ccc(Br)cc21)c1ccccc1` (stereo not given), the melting point stood at 148 °C.

As to `CSc1ncc2c(n1)N(c1ccccc1)C(=O)N(c1ccccc1Cl)C2`, the melting point lay within 79.5 to 82.4 °C.

Compound `CC1(C)CC2(CCNCC2)C(=O)O1` registered a melting point greater than 280 °C.

With `O=C(NN=Cc1ccc(C(F)(F)F)c([N+](=O)[O-])c1)c1ccc(O)cc1`, the melting point amounted to 280 °C.

In turn, `CC(C)Oc1cccc(CC(=O)N2CCCC(CCN3CCC(C(=O)c4nc5ccccc5n4Cc4ccc(F)cc4)CC3)(c3ccc(Cl)c(Cl)c3)C2)c1` (stereo not given) gave a melting point of 70 to 73 °C.

The compound `COC(=O)CC1CCc2ccc(OCc3ccc(C#N)cc3)cc2C1` (stereo not given) had a melting point of 120 to 122 °C.

The compound `CNC(=O)C1CCc2ccccc21` (stereo not given) registered a melting point of 107 to 109 °C.

Compound `Cc1ccc2cccc(OCc3c(Cl)ccc(S(=O)(=O)N(CCCCN(C(=O)OC(C)(C)C)C(=O)OC(C)(C)C)C(C)(C)C)c3Cl)c2n1` showed a melting point of 172 to 175 °C.

The compound `CCCOc1ccc(C(=O)Nc2ccc3cc(CN4CCCC4)cnc3c2C)c(F)c1` displayed a melting point of 146 °C.

Regarding `O=S1(=O)NC(C2CC2)Nc2ccc(S(=O)(=O)N3CCCCC3)cc21` (stereo not given), the melting point lay within 228 to 231 °C.

In turn, `COc1ccc(NC(=O)OCC2(COC(=O)Nc3ccc(OC)cc3)CSc3ccccc3C2=O)cc1` gave a melting point of 58 to 63 °C.

The compound `Oc1cc2onc(-c3ccccc3F)c2cc1Cl` came in with a melting point of 180 to 182 °C.

Take `CNC1([C@@H]2CCN(c3ccc4c(=O)c(C(=O)O)cn5c4c3OC[C@@H]5C)C2)CC1`: the melting point was in the range of 227 to 229 °C.

For `COc1cc(-c2ncn(Cc3ccccc3)c2-c2scc(OC)c2OC)cc(OC)c1OC`, the melting point was in the range of 114 to 115 °C.

With `CCOC(=O)c1ccccc1OCC(O)COc1ccc(F)cc1` (stereo not given), the melting point is 112 to 114 °C.

Regarding `CCCCCCCCCCCCCCCC(=O)OCCCCN`, the melting point was 59 to 61 °C.

`Cc1noc(NS(=O)(=O)c2ccccc2-c2ccc(-c3ncco3)cc2CN2C(=O)C(F)(F)c3ccccc32)c1C` came in with a melting point of 112 to 120 °C.

On to `CC(C)(C)c1cc(CCc2ccccc2NC(=O)NC2CCN(CCc3ccc(F)cc3)CC2)cc(C(C)(C)C)c1O`, for which the melting point lay within 117 to 119 °C.

Regarding `CCOC(=O)N1CCN(CCNc2ncnc3c2sc2nc(N4CCCC4)c4c(c23)CC(C)(C)OC4)CC1`, the melting point lay within 97.8 to 99.1 °C.

Turning to `CNc1nc(Cl)cc(NS(=O)(=O)c2ccc(F)cc2)n1`, the melting point lay within 121 to 123 °C.

In turn, `C/C(=C(\C#N)C(N)=S)N1CCCN(c2ccc(Br)cc2)CC1` showed a melting point of 152 to 155 °C.

Compound `COCCNC(=O)c1cccc(-c2c(F)ccc3cc(Cc4cccc(C(F)(F)F)c4)sc23)c1` yielded a melting point of 116 to 117 °C.

In turn, `CCCCn1nc2c(N)nc3ccccc3c2c1CC(C)(C)O` displayed a melting point of 130 °C.

Regarding `Cc1ccc(-c2nc(N)ncc2-c2ccc(=O)n(C(C)C)n2)cc1`, the melting point worked out at 224 °C.

Regarding `CC1CN(c2cc3c(cc2F)c(=O)c(C(=O)O)cn3C2CC2)CCN1CCC#N` (stereo not given), the melting point was 203 to 206 °C.

Consider `CCCc1c(OCCCOc2c(C(C)=O)ccc(OCC(=O)OCC)c2CCC)ccc(C(C)=O)c1O`, for which the melting point lay in the range of 45 to 46 °C.

On to `COc1ccc(C2CCN(c3c(C)c(C)c4c(c3C)C(c3ccsc3)C(C)(C)O4)CC2)cc1OC` (stereo not given), for which the melting point fell in the range of 111 to 113 °C.

For the compound `CCC(CC)Oc1cc(C)nc2c1n(C)c(=O)n2-c1c(C)cc(C)cc1C`, the melting point was 151 to 153 °C.

In turn, `O=C1c2cccc(Cl)c2C(O)N1c1ccc2ccc(Cl)nc2n1` (stereo not given) gave a melting point of 270 °C.

As to `Nn1cnc2c(Br)csc2c1=O`, the melting point lay within 181 to 183 °C.

In turn, `COCOc1ccccc1-c1cc(-c2cccc(C(=O)O)c2)c(C#N)c(NC(=O)c2cccs2)n1` returned a melting point of 179 to 180 °C.

In turn, `COc1cc(C(C)C)c2c(c1)S(=O)(=O)N(COc1cc(C)nn1-c1ccc([N+](=O)[O-])cc1)C2=O` gave a melting point of 196 to 198 °C.

In turn, `Cc1cccc(Cl)c1N1CCCN(C)C1=S` came in with a melting point of 164 to 165 °C.

The compound `CCOC(=O)c1cccc(NC(=O)NC2C(=O)N(CC34CC5CC(CC(C5)C3)C4)c3ccccc3N(c3ccccc3)C2=O)c1` (stereo not given) had a melting point of 220 to 221 °C.

Consider `COC1=C(Cl)C(Cl)C(C(=O)C2(C3=CCCCC3)C=CC(OC)=C(Cl)C2Cl)(C2=CCCCC2)C=C1` (stereo not given), for which the melting point fell in the range of 126 to 129 °C.

Consider `CCCCc1nc(CO)c(Br)[nH]1`, for which the melting point was 160 °C.

The compound `O=[N+]([O-])c1ccc(/C=C/c2ccccn2)cc1` came in with a melting point of 136 to 139 °C.

Turning to `COC(=O)C[C@H](O)CC(=O)C=Cc1c(-c2ccc(F)cc2)c(-c2ccccc2)c(C(=O)Nc2cccc(S(N)(=O)=O)c2)n1C(C)C`, the melting point lay within 89 to 91 °C.

`CS(=O)(=O)c1ccc(-c2cnn(CCC(F)=C(F)F)c(=O)c2-c2ccc(F)cc2)cc1`: the melting point is 131 to 132 °C.

`O=C(Nc1ccccc1)c1csc(Oc2cccc(Cl)c2)n1` registered a melting point of 94 to 95 °C.

`CCNC(=O)c1ccncc1` registered a melting point of 93 to 95 °C.

`CNC(=O)CCC(=NOCc1ccc(OCc2nc(-c3ccccc3)oc2C)cc1)c1ccccc1` registered a melting point of 141 to 142 °C.

The compound `COc1cc(OC)nc(NC(=O)NS(=O)(=O)Oc2ccccc2OCCCl)n1` showed a melting point of 132 to 134 °C.

In turn, `COC(=O)C(Cl)Cc1ccc2c(c1)NC(=O)C(Cc1ccccc1)O2` (stereo not given) showed a melting point of 124 to 127 °C.

Compound `O=C1Nc2ccccc2C12COc1c2ccc2c1OCCO2` (stereo not given) displayed a melting point greater than 250 °C.

Compound `O=[N+]([O-])C1=C2N(Cc3cnc(Cl)s3)CCN2C2CCC1O2` (stereo not given) registered a melting point of 152 °C.

Compound `CC(C(=O)NCC(COC(=O)C(C)(C)C)Cc1ccc(C(C)(C)C)cc1)c1ccc(NS(C)(=O)=O)c(F)c1` (stereo not given) came in with a melting point of 44 to 46 °C.

As to `CC(=O)c1ccc2ccc3c(c2c1)C(CCl)CN3C(=O)OC(C)(C)C` (stereo not given), the melting point is 98 to 100 °C.

Take `CCOC(=O)C=Cc1ccc(N2CCCC2=O)cc1`: the melting point is 134 °C.

The melting point is the temperature of the solid-liquid transition.
